How the values were obtained:
[1] = Simulated granulation test (dry and wet grinding); type: physicochemical; conditions: dry grinding 30 minutes; wet grinding with ethanol 30 minutes
Excerpt: The purpose was to determine whether polymorphs, solvates, or amorphous forms were readily generated.

[2] = Hygroscopicity study of crystal form A by dynamic vapor sorption (DVS); type: physicochemical; conditions: for Desorption (%) / Sorption (%): DVS
Procedure: The important hygroscopicity of this compound was tested using a dynamic vapor sorption (DVS) instrument. DVS is a dynamic measurement method, so during the measurement process, the sample will undergo a change in mass. Like other types of research methods, DVS records the change in mass of the sample as the relative humidity changes.

[3] = Crystal form transformation, suspension competition experiments; type: physicochemical; conditions: C, D, E, RT; for XRPD of solid after suspension competition: crystal forms A, G together (20 mg each), EtOH/H2O 1/1 (v/v); for XRPD: suspension competition of crystal forms A, G (20 mg each), DMSO/EtOH 1/8 (v/v) saturated solution 15 V
Procedure: In order to study the transformation relationship between various crystal forms and prepare various crystal forms under repeated conditions, a series of suspension competition experiments were carried out on crystal forms A, C, D, E, and G in different solvent systems. The specific experimental steps are as follows:
20 mg of each of crystal forms A, C, D, E, and G were weighed into 5 mL glass vials, and solvents (EtOH/H2O=1/1 (v/v) or DMSO (dimethyl sulfoxide)/EtOH=1/8 (v/v)) were added to form suspensions. The vials were then transferred to 25° C. and stirred for 72 hours. At various time points, the filter cakes were tested by XRPD.

[4] = High-pressure property test; type: physicochemical; conditions: hydraulic pressure 10 tons, 5 minutes
Excerpt: The resulting solid was characterized by XRPD and other methods to evaluate its crystal form stability under high-pressure conditions.

[5] = Solid-state stability study, influencing factor test of crystal form A; type: physicochemical
Procedure: The glass dish or glass vial was then subjected to different environments in a constant temperature and humidity chamber. The conditions include: illumination: 4500±500 Lux; high temperature: 60° C. (sealed); and high humidity: 25° C. with relative humidity RH=90±5% (open).

[6] = Pharmacokinetic test in rats, oral gavage; type: in vivo, Sprague-Dawley rats; conditions: male, Sprague-Dawley, rat, 40 mg/kg, rats, PO, 40 mpk, single dose, plasma
Procedure: (§1) Subsequently, 976 μL of Tween 80 was added and vortexed for 30 seconds, followed by the addition of 488 μL of Kolliphor HS15 (Kolliphor HS15 was used after heating and melting at 50° C.) and vortexed for 30 seconds. Finally, 7808 L of saline was added and vortexed for 30 seconds, followed by ultrasonication for 10 seconds to remove bubbles. The resulting administration preparation was a suspension.
as §1, with “1034” for “976”, “517” for “488”, “8270 μL” for “7808 L”
Species and Strain: Sprague-Dawley rats (SD rats) (Zhejiang Vital River Laboratory Animal Technology Co., Ltd.) • Animal Grade: SPF level
Planned initial body weight for administration: Male 200-250 g. Actual animal weights will be listed in the raw records. • Number and Gender of Animals: 3 (3 per group), male
Based on measured body weights, animals with similar weights were divided into groups of 3 animals each. Blank group animals were used for the collection of blank biological matrices.
• Administration route: Oral gavage • Administration volume: 10 mL/kg • Administration frequency: Single dose • Administration method: The test sample was administered orally via gavage using an appropriate syringe and gavage tube. When using a 2 mL or 5 mL syringe, the administration volume was recorded to one decimal place. When the minimum graduation value of the syringe was 0.2 mL and the administration volume was between two graduation marks, the higher volume was selected for administration.
Sample collection: Approximately 0.30 mL of whole blood was collected from the orbital vein of Group 1 animals at each time point.
The experimental animals were fasted for 12 hours before administration, with free access to water. Blood samples were collected from Group 1 animals (oral gavage group) at 5 min, 15 min, 30 min, 1 h, 2 h, 4 h, 6 h, 8 h, and 24 h after administration.
Sample processing: The collected venous blood was immediately transferred to EDTA-Na2-coated EP tubes (stored in a refrigerator or in an ice box with crushed ice at 2-8° C. prior to use), inverted at least 5 times for thorough mixing, and temporarily stored in an ice box with crushed ice. The collected whole blood was centrifuged at 2000 g for 10 min under 2-8° C. conditions within 2 h to separate plasma, which was then placed in newly labeled centrifuge tubes and stored at −20° C.
The pharmacokinetics group of the Department of Pharmacology and Toxicology conducted the analysis and measurement of all samples, followed by data summarization. Plasma concentration data were analyzed using the pharmacokinetic data analysis software WinNonlin. Non-compartmental analysis (NCA) was employed to calculate pharmacokinetic parameters such as t1/2, Cmax, Tmax, Vd, CL, AUC0-24, and F. The detailed results are shown in the following table: […]

MV4-11 cells = experiment: Killing activity against MV4-11 cells (CellTiter-Glo, CTG); type: cell-based; conditions: Homo sapiens, 72 hours incubation, read-out: IC50 of cell killing activity against MV4-11
Excerpt: Reagent and consumable information is as follows: • MV4-11 Cells (ATCC, Cat. No. CRL-9591) • DPBS (Dulbecco's Phosphate Buffered Saline, Biosera, Cat. No. LM-S2041/500) • IMDM Medium (Thermo, Cat. No. 12440053) • Fetal Bovine Serum (Biological, Cat. No. 04-002-1A) • Penicillin-Streptomycin Solution (Invitrogen, Cat. No. 15140122) • Dimethyl Sulfoxide (Sigma, Cat. No. D2650) • CellTiter-Glo Luminescent Cell Viability Assay (Promega, Cat. No. G7573) • 96-Well Plate (Corning, Cat. No. 3903)
1. MV-4-11 cells were cultured in a complete IMDM medium (IMDM+10% fetal bovine serum+1% Penicillin-Streptomycin, a mixture of penicillin and streptomycin).
2. MV-4-11 cells with good cell status were collected and washed twice with DPBS (Dulbecco's phosphate buffered saline).
3. MV-4-11 cells were resuspended in a complete IMDM medium, adjusted to a cell density of 1.11×10^6 cells/mL, and 90 μL of the mixture was added to each well of a 96-well plate.
4. A 10-fold concentration of the compound solution was prepared in a complete IMDM medium, and 10 μL of the 10-fold concentration of the compound solution was added to each well of the 96-well plate. After mixing well, the 96-well plate was incubated in a 37° C., 5% CO2 incubator for 72 hours.
5. […]
6. The 96-well plate was removed and equilibrated at room temperature for 10 minutes, and then the chemiluminescence value was measured using a microplate reader.

In the case of `CC(C)(O)CCn1cc2cc(NC(=O)c3coc(-c4ccnc(C(F)(F)F)c4)n3)c(C(C)(C)O)cc2n1` [crystal form A], the “Crystal form after simulated granulation (XRPD, DSC)” value [1] is reported as “have not changed”, the “Change in crystal form before and after DVS testing (XRPD)” value [2] is reported as “no change in crystal form” and the “Hygroscopicity (DVS), in words” value ([2]; 25° C., up to 90 RH) is reported as “low hygroscopicity”. The “Moisture sorption (DVS)” value ([2]; 25° C./90 RH, two sorption-desorption curves) was “less than 0.0400”, the “Desorption (%)” value ([2]; first cycle, 0% RH) was −0.01% and the “Sorption (%)” value ([2]; first cycle, 0% RH) was 0.00%. The “Desorption (%)” value ([2]; first cycle, 10% RH) was 0.00%, the “Sorption (%)” value ([2]; first cycle, 10% RH) was −0.01% and the “Desorption (%)” value ([2]; first cycle, 20% RH) was 0.00%. For the same compound, the “Sorption (%)” value ([2]; first cycle, 20% RH) was 0.00%, the “Desorption (%)” value ([2]; first cycle, 30% RH) was 0.00% and the “Sorption (%)” value ([2]; first cycle, 30% RH) was 0.00%. The “Desorption (%)” value ([2]; first cycle, 40% RH) was 0.01%, the “Sorption (%)” value ([2]; first cycle, 40% RH) was 0.00% and the “Desorption (%)” value ([2]; first cycle, 50% RH) was 0.02%. The “Sorption (%)” value ([2]; first cycle, 50% RH) was 0.01%, the “Desorption (%)” value ([2]; first cycle, 60% RH) was 0.02% and the “Sorption (%)” value ([2]; first cycle, 60% RH) was 0.01%. The “Desorption (%)” value ([2]; first cycle, 70% RH) was 0.03%, the “Sorption (%)” value ([2]; first cycle, 70% RH) was 0.02% and the “Desorption (%)” value ([2]; first cycle, 80% RH) was 0.03%. The “Sorption (%)” value ([2]; first cycle, 80% RH) was 0.03%, the “Desorption (%)” value ([2]; first cycle, 90% RH) was 0.03% and the “Sorption (%)” value ([2]; first cycle, 90% RH) was 0.03%. For the same compound, the “Desorption (%)” value ([2]; second cycle, 0% RH) was −0.01%, the “Sorption (%)” value ([2]; second cycle, 0% RH) was −0.01% and the “Desorption (%)” value ([2]; second cycle, 10% RH) was −0.01%. The “Sorption (%)” value ([2]; second cycle, 10% RH) was −0.01%, the “Desorption (%)” value ([2]; second cycle, 20% RH) was 0.00% and the “Sorption (%)” value ([2]; second cycle, 20% RH) was −0.01%. The “Desorption (%)” value ([2]; second cycle, 30% RH) was 0.00%, the “Sorption (%)” value ([2]; second cycle, 30% RH) was −0.01% and the “Desorption (%)” value ([2]; second cycle, 40% RH) was 0.01%. For the same compound, the “Sorption (%)” value ([2]; second cycle, 40% RH) was 0.00%, the “Desorption (%)” value ([2]; second cycle, 50% RH) was 0.01% and the “Sorption (%)” value ([2]; second cycle, 50% RH) was 0.01%. For the same compound, the “Desorption (%)” value ([2]; second cycle, 60% RH) was 0.02%, the “Sorption (%)” value ([2]; second cycle, 60% RH) was 0.01% and the “Desorption (%)” value ([2]; second cycle, 70% RH) was 0.03%. For the same compound, the “Sorption (%)” value ([2]; second cycle, 70% RH) was 0.02%, the “Desorption (%)” value ([2]; second cycle, 80% RH) was 0.03% and the “Sorption (%)” value ([2]; second cycle, 80% RH) was 0.02%. For the same compound, the “Desorption (%)” value ([2]; second cycle, 90% RH) was 0.03%, the “Sorption (%)” value ([2]; second cycle, 90% RH) was 0.03% and the “Moisture Sorption” value ([2]; at 90% RH, DVS 25° C.) was “Moisture Sorption of 0.03% at 90% RH”. The “XRPD of solid after suspension competition” value (“XRPD of solid” below) ([3]; 24 hours) was “Crystal Form C”, the “XRPD of solid” value ([3]; 48 hours) was “Crystal Form C” and the “XRPD of solid” value ([3]; 72 hours) was “Crystal Form C”. For the same compound, the XRPD ([3]; 24 hours) was “Crystal Form A”, the XRPD ([3]; 48 hours) was “Crystal Form A” and the XRPD ([3]; 72 hours) was “Crystal Form A”. For the same compound, the “Crystal form after high-pressure treatment (XRPD)” value [4] was “has not changed”, the Purity ([5]; High Relative Humidity (RH = 90 ± 5%, Open, 25° C.), 5 Days) was 99.60% and the Purity ([5]; High Relative Humidity (RH = 90 ± 5%, Open, 25° C.), 11 Days) was 99.56%. For the same compound, the Purity ([5]; High Temperature (60° C., Sealed), 5 Days) was 99.26%, the Purity ([5]; High Temperature (60° C., Sealed), 11 Days) was 99.67% and the Purity ([5]; Strong Illumination (Open), 5 Days) was 99.67%. For the same compound, the Purity ([5]; Strong Illumination (Open), 11 Days) was 99.44%, the Solid-state stability evaluation ([5]; illumination 4500±500 Lux, 60° C. sealed, 25° C. RH=90±5% open) was “good physical and chemical properties” and the Purity ([5]; initial, before stress) was 99.70%.
For `CC(C)(O)CCn1cc2cc(NC(=O)c3coc(-c4ccnc(C(F)(F)F)c4)n3)c(C(C)(C)O)cc2n1` [formula I], the AUC(0-t) ([6]; read-out: AUC0-24) was 4880 ng·h/mL, the Cmax ([6]; read-out: Cmax) was 934 ng/mL and the IC50 (MV4-11 cells) was 21 nM.
